# Assay results taken from PMC12337661, “PIEZO1 mechanical insensitivity in generalized lymphatic dysplasia with the potential for pharmacological rescue” (iScience, 2025).
# Target: T1, I2286T mPIEZO1 (Mus musculus, UniProt E2JF22, I2286T)
# T1 construct: expressed in transfected cells
# Assay: Intracellular Ca2+ measurement (fura-2), T-REx-293 cells stably transfected
# Type: cell-based
# Description: T-REx-293 cell line was transfected with pcDNA4/TO-mPIEZO1 constructs using Lipofectamine 2000 (Invitrogen) as above and treated with 200 μg.mL^−1 zeocin (InvivoGen) to select for stably transfected cells. At least two strongly expressing clonal cell lines were established and tested for each variant. All cell lines were maintained in Dulbecco’s Modified Eagle’s medium (Invitrogen) supplemented with 10% heat-inactivated fetal calf serum (Sigma-Aldrich), penicillin (50 units.mL^−1) and streptomycin (0.5 mg.mL^−1) (Sigma-Aldrich) and grown at 37°C in a humidified 5% CO2 incubator.
# For intracellular Ca^2+ assays, cells were plated at 80–90% confluence in 96-well plates 24 h prior to recordings (6–8 × 10^4 cells per well). […] Cells were washed with SBS and incubated at room temperature for 20 min prior to recordings. Equal volumes of 2x concentrated compounds were injected to test for acute channel activation. Pre-incubation with compounds occurred during the 20 min prior to recordings. To expose cell membranes to hypo-osmolality, an equal volume of hypotonic SBS (containing only 35 mM NaCl) was injected onto the cells. Measurements were made on a fluorescence plate reader (Flexstation III, Molecular Devices) at room temperature (21 ± 2°C). Fura-2 was excited at 340 nm and 380 nm and emitted light collected at 510 nm, with measurements shown as the change in fluorescence (F) ratio (ΔF340/380).
# KC41 (Dooku1) was prepared as described.[28] All purchased chemicals and solvents were used without further purification unless otherwise stated. All compounds were at least 95% pure by 1H NMR. 1H Nuclear Magnetic Resonance spectra were recorded at 500 MHz using a Bruker DRX 500 instrument or at 400 MHz using a Bruker DPX 400. 1H spectra are referenced based on the residual proton in the solvent (e.g., the CHCl3, 0.01% in 99.99% CDCl3). Coupling constants (J) are reported to the nearest 0.1 Hz. 13C NMR spectra were recorded at 125 MHz on 500 MHz spectrometers or at 100 MHz on 400 MHz spectrometers. LC-MS was performed on a Bruker Daltronics running a gradient of increasing acetonitrile (5–95%) in H2O both containing 0.1% formic acid at 1 mL.min^−1, on a short path C18 reverse phase column, detecting compounds with both a diode array detector and a Bruker mass spectrum analyser. HRMS was performed on a Bruker Daltonics micrOTOF using positive electrospray ionisation (ES+). Automated column chromatograph was carried out using a Biotage Isolera Four, using either Sfär Silica D or KP-Silica cartridges. HPLC was performed on an Agilent 1290 Infinity Series equipped with a UV detector and Hyperprep C18 reverse phase column. Key to NMR abbreviations: s (singlet), br s (broad singlet) d (doublet), dd (doublet of doublets), ddd (doublet of doublets of doublets), t (triplet), dt (doublet of triples), q (quartet), m (multiplet), ap. t (apparent triplet). For experiments, Yoda1 and its analogues were prepared as 10 mM stock solutions in 100% dimethyl sulfoxide (DMSO) before serial dilution in DMSO and final dilution in aqueous solution. Cells were exposed to 0.1% DMSO for all concentrations of the compounds from 0 to 10 μM.
# T1 sequence (E2JF22 whole entry I2286T): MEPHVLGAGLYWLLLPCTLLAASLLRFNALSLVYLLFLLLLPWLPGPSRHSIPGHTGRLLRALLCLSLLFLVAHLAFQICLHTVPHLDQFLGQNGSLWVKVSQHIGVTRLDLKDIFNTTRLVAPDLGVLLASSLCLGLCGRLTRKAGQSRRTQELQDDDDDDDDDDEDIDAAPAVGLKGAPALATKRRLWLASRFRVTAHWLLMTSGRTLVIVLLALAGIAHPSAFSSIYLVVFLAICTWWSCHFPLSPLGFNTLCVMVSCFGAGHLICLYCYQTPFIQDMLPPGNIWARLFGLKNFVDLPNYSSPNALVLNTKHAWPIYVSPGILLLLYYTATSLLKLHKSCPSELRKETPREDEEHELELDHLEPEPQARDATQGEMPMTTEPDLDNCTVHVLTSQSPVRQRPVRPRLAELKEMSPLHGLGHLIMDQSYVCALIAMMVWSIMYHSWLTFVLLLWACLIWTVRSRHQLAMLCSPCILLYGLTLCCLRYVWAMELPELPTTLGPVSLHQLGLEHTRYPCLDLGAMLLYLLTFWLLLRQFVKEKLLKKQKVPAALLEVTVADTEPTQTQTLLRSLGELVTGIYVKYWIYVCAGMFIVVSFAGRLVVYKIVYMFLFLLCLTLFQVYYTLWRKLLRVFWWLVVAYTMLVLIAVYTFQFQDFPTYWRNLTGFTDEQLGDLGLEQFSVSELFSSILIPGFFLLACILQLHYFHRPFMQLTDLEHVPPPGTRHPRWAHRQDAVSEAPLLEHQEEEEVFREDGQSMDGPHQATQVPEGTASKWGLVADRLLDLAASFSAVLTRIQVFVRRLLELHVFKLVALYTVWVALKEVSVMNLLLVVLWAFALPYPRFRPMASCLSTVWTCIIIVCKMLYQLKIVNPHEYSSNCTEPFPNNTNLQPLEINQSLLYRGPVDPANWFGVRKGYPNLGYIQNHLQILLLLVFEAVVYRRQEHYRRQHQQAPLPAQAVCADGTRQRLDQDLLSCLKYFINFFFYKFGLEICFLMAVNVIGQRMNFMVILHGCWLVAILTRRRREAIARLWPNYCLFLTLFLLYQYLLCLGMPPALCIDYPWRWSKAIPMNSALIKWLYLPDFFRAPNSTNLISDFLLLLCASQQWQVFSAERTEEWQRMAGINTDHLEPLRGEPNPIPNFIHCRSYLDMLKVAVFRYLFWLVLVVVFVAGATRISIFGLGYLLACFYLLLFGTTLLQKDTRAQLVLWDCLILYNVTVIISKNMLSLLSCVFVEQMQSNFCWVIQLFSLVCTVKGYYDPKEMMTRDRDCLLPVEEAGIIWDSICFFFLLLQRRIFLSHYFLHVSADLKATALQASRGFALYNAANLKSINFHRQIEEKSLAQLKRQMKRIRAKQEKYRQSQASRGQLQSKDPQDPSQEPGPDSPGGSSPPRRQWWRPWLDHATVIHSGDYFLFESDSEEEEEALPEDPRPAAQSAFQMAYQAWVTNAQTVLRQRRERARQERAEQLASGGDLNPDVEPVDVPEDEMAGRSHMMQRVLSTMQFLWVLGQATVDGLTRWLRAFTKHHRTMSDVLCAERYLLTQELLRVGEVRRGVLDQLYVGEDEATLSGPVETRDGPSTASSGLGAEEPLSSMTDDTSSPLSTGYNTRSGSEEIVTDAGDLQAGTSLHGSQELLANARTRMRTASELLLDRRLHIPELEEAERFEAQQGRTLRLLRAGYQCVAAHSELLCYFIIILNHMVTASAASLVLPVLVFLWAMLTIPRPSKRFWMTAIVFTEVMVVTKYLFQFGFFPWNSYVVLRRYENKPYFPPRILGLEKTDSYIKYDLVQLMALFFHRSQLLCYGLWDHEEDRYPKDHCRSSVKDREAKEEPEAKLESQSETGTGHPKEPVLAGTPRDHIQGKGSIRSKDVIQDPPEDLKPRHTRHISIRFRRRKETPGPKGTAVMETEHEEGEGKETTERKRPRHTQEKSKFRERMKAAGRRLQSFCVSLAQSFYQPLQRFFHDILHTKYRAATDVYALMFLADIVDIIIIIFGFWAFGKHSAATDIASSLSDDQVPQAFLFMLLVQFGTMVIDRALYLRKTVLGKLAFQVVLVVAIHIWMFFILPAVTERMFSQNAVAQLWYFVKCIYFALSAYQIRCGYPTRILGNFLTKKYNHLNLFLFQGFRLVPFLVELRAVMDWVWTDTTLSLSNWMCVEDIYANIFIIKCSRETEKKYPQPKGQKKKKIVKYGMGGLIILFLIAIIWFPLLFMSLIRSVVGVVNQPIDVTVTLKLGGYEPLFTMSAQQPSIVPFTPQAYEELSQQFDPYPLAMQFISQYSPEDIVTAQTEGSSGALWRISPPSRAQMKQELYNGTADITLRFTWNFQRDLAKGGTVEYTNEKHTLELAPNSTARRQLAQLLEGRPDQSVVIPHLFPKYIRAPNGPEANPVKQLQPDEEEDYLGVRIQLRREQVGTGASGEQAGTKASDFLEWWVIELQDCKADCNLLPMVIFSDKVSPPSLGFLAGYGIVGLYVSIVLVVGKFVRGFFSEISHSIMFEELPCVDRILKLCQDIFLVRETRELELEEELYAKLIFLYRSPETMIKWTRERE
smiles,measurement,setting,value
"O=C(O)c1ccc(-c2cnc(SCc3c(Cl)cccc3Cl)s2)cc1 [Yoda2b, 4-(2-([(2,6-Dichlorophenyl)methyl]sulfanyl)-1,3-thiazol-5-yl)benzoic acid]",Mean (ΔFratio),"0.3 µM, time 0 s",0.00239
same,Mean (ΔFratio),"0.3 µM, time 5 s",-0.00843
same,Mean (ΔFratio),"0.3 µM, time 10 s",0.00738
same,Mean (ΔFratio),"0.3 µM, time 15 s",-3.95E-05
same,Mean (ΔFratio),"0.3 µM, time 20 s",-9.74E-04
same,Mean (ΔFratio),"0.3 µM, time 25 s",-3.25E-04
same,Mean (ΔFratio),"0.3 µM, time 30 s",-0.07905
same,Mean (ΔFratio),"0.3 µM, time 35 s",-0.08536
same,Mean (ΔFratio),"0.3 µM, time 40 s",0.2313
same,Mean (ΔFratio),"0.3 µM, time 45 s",0.4546
same,Mean (ΔFratio),"0.3 µM, time 50 s",0.5954
same,Mean (ΔFratio),"0.3 µM, time 55 s",0.6989
same,Mean (ΔFratio),"0.3 µM, time 60 s",0.7448
same,Mean (ΔFratio),"0.3 µM, time 65 s",0.7353
same,Mean (ΔFratio),"0.3 µM, time 70 s",0.7286
same,Mean (ΔFratio),"0.3 µM, time 75 s",0.7236
same,Mean (ΔFratio),"0.3 µM, time 80 s",0.681
same,Mean (ΔFratio),"0.3 µM, time 85 s",0.6794
same,Mean (ΔFratio),"0.3 µM, time 90 s",0.6567
same,Mean (ΔFratio),"0.3 µM, time 95 s",0.6006
same,Mean (ΔFratio),"0.3 µM, time 100 s",0.6101
same,Mean (ΔFratio),"0.3 µM, time 105 s",0.603
same,Mean (ΔFratio),"0.3 µM, time 110 s",0.5805
same,Mean (ΔFratio),"0.3 µM, time 115 s",0.5587
same,Mean (ΔFratio),"0.3 µM, time 120 s",0.5669
same,Mean (ΔFratio),"0.3 µM, time 125 s",0.5131
same,Mean (ΔFratio),"0.3 µM, time 130 s",0.5257
same,Mean (ΔFratio),"3 µM, time 0 s",-0.00226
same,Mean (ΔFratio),"3 µM, time 5 s",0.01302
same,Mean (ΔFratio),"3 µM, time 10 s",-0.01316
same,Mean (ΔFratio),"3 µM, time 15 s",-0.00422
same,Mean (ΔFratio),"3 µM, time 20 s",0.00798
same,Mean (ΔFratio),"3 µM, time 25 s",-0.00136
same,Mean (ΔFratio),"3 µM, time 30 s",-0.4575
same,Mean (ΔFratio),"3 µM, time 35 s",-0.0464
same,Mean (ΔFratio),"3 µM, time 40 s",0.8681
same,Mean (ΔFratio),"3 µM, time 45 s",1.381
same,Mean (ΔFratio),"3 µM, time 50 s",1.657
same,Mean (ΔFratio),"3 µM, time 55 s",1.797
same,Mean (ΔFratio),"3 µM, time 60 s",1.789
same,Mean (ΔFratio),"3 µM, time 65 s",1.7806
same,Mean (ΔFratio),"3 µM, time 70 s",1.778
same,Mean (ΔFratio),"3 µM, time 75 s",1.702
same,Mean (ΔFratio),"3 µM, time 80 s",1.669
same,Mean (ΔFratio),"3 µM, time 85 s",1.657
same,Mean (ΔFratio),"3 µM, time 90 s",1.535
same,Mean (ΔFratio),"3 µM, time 95 s",1.511
same,Mean (ΔFratio),"3 µM, time 100 s",1.421
same,Mean (ΔFratio),"3 µM, time 105 s",1.3863
same,Mean (ΔFratio),"3 µM, time 110 s",1.364
same,Mean (ΔFratio),"3 µM, time 115 s",1.304
same,Mean (ΔFratio),"3 µM, time 120 s",1.27
same,Mean (ΔFratio),"3 µM, time 125 s",1.258
same,Mean (ΔFratio),"3 µM, time 130 s",1.2123
same,EC50,1.5 min exposure,0.71 µM
same,"Mean (concentration-response, Figure 3l)","1.5 min exposure, 0.01 µM",0.00606
same,"Mean (concentration-response, Figure 3l)","1.5 min exposure, 0.03 µM",0.01869
same,"Mean (concentration-response, Figure 3l)","1.5 min exposure, 0.1 µM",0.08252
same,"Mean (concentration-response, Figure 3l)","1.5 min exposure, 0.3 µM",0.2937
same,"Mean (concentration-response, Figure 3l)","1.5 min exposure, 1 µM",0.643
same,"Mean (concentration-response, Figure 3l)","1.5 min exposure, 3 µM",0.8962
same,"Mean (concentration-response, Figure 3l)","1.5 min exposure, 10 µM",1.056
same,side-by-side comparison of channel activation with Yoda1,same 96-well plate,more effective at activating I2286T channels than Yoda1
Clc1cccc(Cl)c1CSc1nnc(-c2cnccn2)s1 [Yoda1],Mean (ΔFratio),"0.3 µM, time 0 s",0.00284
same,Mean (ΔFratio),"0.3 µM, time 5 s",-0.01214
same,Mean (ΔFratio),"0.3 µM, time 10 s",-0.00475
same,Mean (ΔFratio),"0.3 µM, time 15 s",0.0078
same,Mean (ΔFratio),"0.3 µM, time 20 s",0.0053
same,Mean (ΔFratio),"0.3 µM, time 25 s",9.46E-04
same,Mean (ΔFratio),"0.3 µM, time 30 s",-0.3226
same,Mean (ΔFratio),"0.3 µM, time 35 s",0.06275
same,Mean (ΔFratio),"0.3 µM, time 40 s",0.07886
same,Mean (ΔFratio),"0.3 µM, time 45 s",0.1026
same,Mean (ΔFratio),"0.3 µM, time 50 s",0.1196
same,Mean (ΔFratio),"0.3 µM, time 55 s",0.1055
same,Mean (ΔFratio),"0.3 µM, time 60 s",0.1268
same,Mean (ΔFratio),"0.3 µM, time 65 s",0.1277
same,Mean (ΔFratio),"0.3 µM, time 70 s",0.1132
same,Mean (ΔFratio),"0.3 µM, time 75 s",0.108
same,Mean (ΔFratio),"0.3 µM, time 80 s",0.1196
same,Mean (ΔFratio),"0.3 µM, time 85 s",0.1097
same,Mean (ΔFratio),"0.3 µM, time 90 s",0.1266
same,Mean (ΔFratio),"0.3 µM, time 95 s",0.09696
same,Mean (ΔFratio),"0.3 µM, time 100 s",0.1131
same,Mean (ΔFratio),"0.3 µM, time 105 s",0.1125
same,Mean (ΔFratio),"0.3 µM, time 110 s",0.1236
same,Mean (ΔFratio),"0.3 µM, time 115 s",0.1032
same,Mean (ΔFratio),"0.3 µM, time 120 s",0.1051
same,Mean (ΔFratio),"0.3 µM, time 125 s",0.1128
same,Mean (ΔFratio),"0.3 µM, time 130 s",0.1149
same,Mean (ΔFratio),"3 µM, time 0 s",0.00514
same,Mean (ΔFratio),"3 µM, time 5 s",-0.00971
same,Mean (ΔFratio),"3 µM, time 10 s",-0.01128
same,Mean (ΔFratio),"3 µM, time 15 s",-0.00374
same,Mean (ΔFratio),"3 µM, time 20 s",0.00352
same,Mean (ΔFratio),"3 µM, time 25 s",0.01607
same,Mean (ΔFratio),"3 µM, time 30 s",-0.3514
same,Mean (ΔFratio),"3 µM, time 35 s",-7.87E-04
same,Mean (ΔFratio),"3 µM, time 40 s",0.4454
same,Mean (ΔFratio),"3 µM, time 45 s",0.684
same,Mean (ΔFratio),"3 µM, time 50 s",0.8254
same,Mean (ΔFratio),"3 µM, time 55 s",0.9146
same,Mean (ΔFratio),"3 µM, time 60 s",1.017
same,Mean (ΔFratio),"3 µM, time 65 s",0.992
same,Mean (ΔFratio),"3 µM, time 70 s",1.046
same,Mean (ΔFratio),"3 µM, time 75 s",1.071
same,Mean (ΔFratio),"3 µM, time 80 s",1.067
same,Mean (ΔFratio),"3 µM, time 85 s",1.06
same,Mean (ΔFratio),"3 µM, time 90 s",1.0819
same,Mean (ΔFratio),"3 µM, time 95 s",1.076
same,Mean (ΔFratio),"3 µM, time 100 s",1.0617
same,Mean (ΔFratio),"3 µM, time 105 s",1.0398
same,Mean (ΔFratio),"3 µM, time 110 s",1.005
same,Mean (ΔFratio),"3 µM, time 115 s",1.038
same,Mean (ΔFratio),"3 µM, time 120 s",1.008
same,Mean (ΔFratio),"3 µM, time 125 s",0.9978
same,Mean (ΔFratio),"3 µM, time 130 s",0.9846
same,Mean normalise fluorescence,"1.5 min exposure, 0.03 µM",-0.00469
same,Mean normalise fluorescence,"1.5 min exposure, 0.1 µM",-0.00217
same,Mean normalise fluorescence,"1.5 min exposure, 0.3 µM",0.03506
same,Mean normalise fluorescence,"1.5 min exposure, 1 µM",0.1805
same,Mean normalise fluorescence,"1.5 min exposure, 3 µM",0.4613
same,Mean normalise fluorescence,"1.5 min exposure, 5 µM",0.7197
same,Mean normalise fluorescence,"1.5 min exposure, 10 µM",1
same,Mean normalise fluorescence,"20 min exposure, normalized to 3 μM, 0.03 µM",0.09646
same,Mean normalise fluorescence,"20 min exposure, normalized to 3 μM, 0.1 µM",0.04298
same,Mean normalise fluorescence,"20 min exposure, normalized to 3 μM, 0.3 µM",0.2627
same,Mean normalise fluorescence,"20 min exposure, normalized to 3 μM, 1 µM",0.9872
same,Mean normalise fluorescence,"20 min exposure, normalized to 3 μM, 3 µM",1
same,Mean normalise fluorescence,"20 min exposure, normalized to 3 μM, 10 µM",0.9221
same,EC50,"long (20 min) exposure, normalized to 3 μM Yoda1",0.41 µM
same,Effect on mPIEZO1 channel function,versus WT,loss of MA: LOF; reduced Y1 potency
